Our source for the refractive index values is the NIST ThermoML archive (doi:10.1021/je2002539).

Numbers after ± are expanded uncertainties.

A word on the refractive index: it is the speed of light in vacuum divided by its phase velocity in the sample.

The data set in a line: refractive index (Na D-line) (dimensionless). The conditions noted are these: 298.15 K; 101.33 kPa; Liquid; Standard Abbe refractometry.
In the case of `CCCCCCCCCCO` [decan-1-ol], the refractive index came to 1.43436 ± 0.00033.

For `CCCCCCCCCCCCO` [dodecan-1-ol], the refractive index turned out to be 1.44058 ± 0.00033.

With `CCCCCCO` [hexan-1-ol], the refractive index is given as 1.4158 ± 0.00033.

As for `CCCCCCCCCO` [nonan-1-ol], the refractive index came to 1.43084 ± 0.00033.

Take `CCCCCCCCO` [octan-1-ol]: the refractive index was found to be 1.42695 ± 0.00033.

In the case of `CCCCCO` [pentan-1-ol], the refractive index is reported as 1.40703 ± 0.00033.

Take `CCCO` [propan-1-ol]: the refractive index is on record as 1.38305 ± 0.00033.

Turning to `O` [water], the refractive index stood at 1.33248 ± 0.00031.
